# Reference: patent US9353048B2, “Compound as KCNQ potassium channel agonist, preparation method therefor and use thereof” (SHANGHAI INSTITUTE OF MATERIA MEDICA, CHINESE ACADEMY OF …, priority 2011, dated 2016)
# Where “and” joins values, the source holds several entries; their conditions need not be identical. Equal entries are not always repeated. Entries after “also recorded” stand apart in the source; their conditions may differ. Structures can show the parent of a compound that is named as a salt. Marks after values point to notes of the source that are not given here.
# Legend:
# [1] = tested on: Animal Models Induced by MES; experiment: MES test, compounds orally administrated (gastric lavage), KM mice; assay type: in vivo; details: for Incidence rate of convulsion / Protection rate of compounds: 30 mg/kg gastric lavage, MES 1 hour later; for effect in MES test (in words): gastric lavage
# Procedure: (§1) One time of electrical stimulation was applied to animals through ear clip electrodes, and a convulsion characterized by a tonic hind limb extension was observed. One day before the test, animals were screened in the above procedure to record the values of MES.
# 1 hour later, MES was applied according to parameters set the last day, and response of animals were observed and recorded immediately.
# [2] = tested on: Animal Models Induced by PTZ; experiment: PTZ test, compounds orally administrated (gastric lavage), KM mice; details: for Incidence of tonic fore limb extension / Incidence of tonic hind limb extension / Latency period of clonus / Latency period of fore limb extension / Mortality rate / Incidence rate of clonus: 30 mg/kg gastric lavage; for Incidence rate of clonus: PTZ 100 mg/kg s.c. 1 h later, observation 1 h; for effect in PTZ test (in words): gastric lavage
# Procedure: Response of animals were observed immediately and recorded within a period of 1 h.
# [3] = tested on: Convulsion Induced by Pentylenetetrazole (PTZ); experiment: Convulsion induced by pentylenetetrazole (PTZ), compounds by gastric lavage, C57BL/6J mice; assay type: in vivo; details: 30 mg/kg gastric lavage; for Latency period of clonus / Latency period of whole-body tonic seizures / Mortality rate / Incidence rate of convulsion: PTZ 80 mg/kg s.c. 1 h later; for Incidence rate of convulsion: observed 60 min; for anti-convulsive effect (in words): PTZ-induced convulsion
# Procedure: The compounds to be tested were administrated to animals by gastric lavage (30 mg/kg); one hour later, pentylenetetrazole was administrated by subcutaneous injection (PTZ 80 mg/kg); and response of animals were observed within a period of 60 min.
# [4] = Solubility in water (treatment of samples)
# [5] = tested on: Animal Models Induced by PTZ (Pentylenetetrazole); experiment: PTZ test, compounds by intraperitoneal injection, KM mice; assay type: in vivo; details: for Incidence rate of convulsion: PTZ 100 mg/kg s.c. 30 min later, observation 1 h
# Procedure: Compounds to be tested were administrated by intraperitoneal injection (10 mg/kg, 5 mg/kg, 2.5 mg/kg, 0.1 ml/10 g).
# [6] = tested on: Animal Models Induced by MES (Maximum Electroshock); experiment: MES test, compounds by intraperitoneal injection, KM mice; assay type: in vivo; details: 10 mg/kg i.p.; for Mortality rate / Incidence of convulsion: MES 30 min later; for Incidence of convulsion: tonic hind limb extension
# Text: as §1
# KCNQ channels = experiment: Whole-cell voltage-clamp electrophysiological recording in CHO cells transfected with KCNQ channels; assay type: cell-based; details: for I/I0: activation multiple, maximum induced current at −10 mV testing voltage after administration (10 μM) vs before, >1 activating, <1 inhibiting; for ΔV1/2: shift of V1/2 of current activation curve, negative sign = left-ward shift, CHO cells
# Procedure: The formulation of culture fluid for Chinese hamster […] (CHO) (Culture Collection of Chinese Academy of Sciences): 50/50 DMEM/F-12 (Cellgro, Mamassas, Va.), 10% fetal bovine serum (FBS) (Gibco, Australia) and 2 mM […] (Invitrogen). […] Lipofectamine2000™ agent (Invitrogen) was used for Transfection according to the protocol thereof. […] After cotransfection with GFP (green fluorescent protein), transfected cells could be determined under a fluorescence microscopy.
# Whole-cell voltage-clamp recording was performed by using Axopatch-200B amplifier (Molecular Devices, Sunnyvale, Calif.) at room temperature. Borosilicate glass capillary tubes (World Precision Instruments, Sarasota, Fla.) were drawn into electrodes. The electric resistance of the electrodes filled with an intracellular fluid is 3 to 5 MΩ. […] During the recording, an extracellular fluid was continuously perfused by using a BPS perfusion system (ALA Scientific Instruments, Westburg, N.Y.). The formulation of the extracellular fluid was as follows: 140 mM NaCl, 5 mM KCl, 2 mM CaCl2, 1.5 mM MgCl2, 10 mM HEPES and 10 mM glucose (the pH value of the extracellular fluid was adjusted to 7.4 with NaOH). […] Resistors were connected in series to compensate 60 to 80% of signal loss. At present, multivoltage scheme was generally adopted, wherein the clamp voltage was set at −100 mV. Current was induced in cells by a series of 2000 ms stimulating voltage (from −90 mV up to +50 mV, with interval of 10 mV).
# In the following table, V1/2 is the voltage at which 50% of cells were activated, ΔV1/2 is amount of a left-ward shift of V1/2, negative sign (−) represents a left-ward shift of the current activation curve and positive sign (+) represents a right-ward shift of the curve. I/I0 is the activation multiple, wherein, I0 is the maximum induced current produced under stimulation of −10 mV testing voltage, I is the maximum induced current produced under stimulation of −10 mV testing voltage after administration (10 μM), I/I0>1 represents activating activity, and I/I0<1 represents inhibiting activity. N is the number of tested cells. NT represents non-tested.
# in vivo = details: mouse, 20 mg/kg
# Procedure: Two hours after administration, animal were fed uniformly. Specific arrangement was as following table.
# After administration by gastric lavage or intravenous injection, mice were sacrificed by cutting abdominal aorta at time points set as the above with 3 mice for each time point. 0.5 mL of whole blood was collected for each animal, placed into a heparinized test tube and subjected to centrifugation at 3000 rpm to separate plasma, which was then cryopreserved in a −20° C. refrigerator. After the animals were sacrificed, their whole brain was collected, washed with ice-cooled physiological saline to remove residual blood. Then the residual liquid was absorbed to dryness. The treated brain was labeled and cryopreserved in a −20° C. refrigerator.
smiles,measurement,setting,value
"CCOC(=O)Nc1ccc(NCc2ccc(F)cc2)cc1N [Retigabine, retigabine, reference compound]",Incidence rate of convulsion,[1],5/13***
same,Protection rate of compounds,[1],61.5%***
same,effect in MES test (in words),[1],significantly inhibiting the incidence of the grand mal seizure; also recorded: comparable effect
same,Incidence of tonic fore limb extension,[2],3/12**
same,Incidence of tonic hind limb extension,[2],0/12**
same,Latency period of clonus,[2],177 ± 70 s
same,Latency period of fore limb extension,[2],1063 ± 284 s
same,Mortality rate,[2],0/12**
same,Incidence rate of clonus,[2],12/12
same,effect in PTZ test (in words),[2],obviously reduce the incidence rate of convulsion and mortality rate; also recorded: significantly reduce the incidence rate of convulsion and mortality rate
same,Latency period of clonus,[3],No typical
same,Latency period of whole-body tonic seizures,[3],1472 ± 961 s
same,Mortality rate,[3],4/10
same,Incidence rate of convulsion,[3],5/10
same,anti-convulsive effect (in words),[3],comparable anti-convulsive effect
same,behaviour of animals after administration,[3]; returned to normal after 20 min,quite and less active
same,solubility in water (in words),[4],can be easily dissolved in water
same,Incidence of tonic fore limb extension,[5]; 2.5 mg/kg i.p.,5/10
same,Incidence of tonic hind limb extension,[5]; 2.5 mg/kg i.p.,1/10**
same,Latency period of clonus,[5]; 2.5 mg/kg i.p.,179 ± 60 s
same,Latency period of tonic hind limb,[5]; 2.5 mg/kg i.p.,827 s
same,Mortality rate,[5]; 2.5 mg/kg i.p.,7/10
same,Incidence rate of convulsion,[5]; 2.5 mg/kg i.p.,10/10
same,Incidence of tonic fore limb extension,[5]; 5 mg/kg i.p.,4/10
same,Incidence of tonic hind limb extension,[5]; 5 mg/kg i.p.,2/10*
same,Latency period of clonus,[5]; 5 mg/kg i.p.,184 ± 40 s
same,Latency period of tonic hind limb,[5]; 5 mg/kg i.p.,883 ± 151 s
same,Mortality rate,[5]; 5 mg/kg i.p.,5/10
same,Incidence rate of convulsion,[5]; 5 mg/kg i.p.,10/10
same,Incidence of tonic hind limb extension,[5]; 10 mg/kg i.p.,4/12*
same,Latency period of clonus,[5]; 10 mg/kg i.p.,239 ± 113 s
same,Latency period of tonic hind limb,[5]; 10 mg/kg i.p.,1100 ± 319 s
same,Mortality rate,[5]; 10 mg/kg i.p.,2/12**
same,Incidence rate of convulsion,[5]; 10 mg/kg i.p.,10/10
same,sedative effect,[5]; intraperitoneal injection,some sedative effect
same,Mortality rate,[6],0
same,Incidence of convulsion,[6],4/11**
"C#CCN(Cc1ccc(F)cc1)c1ccc(NC(=O)OCC)c(N)c1 [Compound K21, ethyl 2-amino-4-(N-parafluorobenzyl-N-propargyl-imino)-aniline formate]",Incidence rate of convulsion,[1],2/13***
same,Protection rate of compounds,[1],84.6%***
same,effect in MES test (in words),[1],significantly inhibiting the incidence of the grand mal seizure
same,Incidence of tonic fore limb extension,[2],5/12
same,Incidence of tonic hind limb extension,[2],0/12**
same,Latency period of clonus,[2],148 ± 37 s
same,Latency period of fore limb extension,[2],1561 ± 690 s
same,Mortality rate,[2],3/12
same,Incidence rate of clonus,[2],12/12
same,effect in PTZ test (in words),[2],significantly inhibit tonic seizures
same,I/I0,KCNQ channels,1.53 ± 0.15
same,ΔV1/2,KCNQ channels,−47.9 ± 3.5 mV
same,solubility in water (in words),[4],can not be easily dissolved in water
same,Incidence of tonic fore limb extension,[5]; 2.5 mg/kg i.p.,2/10
same,Incidence of tonic hind limb extension,[5]; 2.5 mg/kg i.p.,0/10***
same,Latency period of clonus,[5]; 2.5 mg/kg i.p.,184 ± 42 s
same,Mortality rate,[5]; 2.5 mg/kg i.p.,1/10**
same,Incidence rate of convulsion,[5]; 2.5 mg/kg i.p.,9/10
same,Incidence of tonic fore limb extension,[5]; 5 mg/kg i.p.,3/10
same,Incidence of tonic hind limb extension,[5]; 5 mg/kg i.p.,0/10***
same,Latency period of clonus,[5]; 5 mg/kg i.p.,238 ± 54 s
same,Mortality rate,[5]; 5 mg/kg i.p.,1/10**
same,Incidence rate of convulsion,[5]; 5 mg/kg i.p.,10/10
same,Incidence of tonic hind limb extension,[5]; 10 mg/kg i.p.,0/12***
same,Mortality rate,[5]; 10 mg/kg i.p.,0/12***
same,Incidence rate of convulsion,[5]; 10 mg/kg i.p.,12/12
same,sedative effect,[5]; intraperitoneal injection,some sedative effect
same,anti-convulsive effect compared with retigabine (in words),"[5]; intraperitoneal injection, same dosage, PTZ and MES tests",slightly stronger than that of retigabine
same,grand mal seizure in MES test (in words),[6],completely avoided the grand mal seizure
same,Mortality rate,[6],0
same,Incidence of convulsion,[6],2/10***
"C#CCN(Cc1ccc(F)cc1)c1ccc(NC(=O)OC)cc1 [Compound K9, methyl 4-(N-parafluorobenzyl-N-propargyl-imino)-aniline formate]",I/I0,KCNQ channels,3.27 ± 0.10
same,ΔV1/2,KCNQ channels,−24.21 ± 2.4 mV
same,Latency period of clonus,[3],351 ± 84.3 s
same,Latency period of whole-body tonic seizures,[3],1382 ± 339 s
same,Mortality rate,[3],4/10
same,Incidence rate of convulsion,[3],4/10
same,anti-convulsive effect (in words),[3],comparable anti-convulsive effect
same,solubility in water (in words),[4],can not be easily dissolved in water
same,Kp,"in vivo; male, KM",1.9
same,bioavailability,"in vivo; male, KM",26%
same,AUC(0-t),"in vivo; male, KM, iv",7180 ng·h/mL
same,Kp,"in vivo; male, KM, iv",1.5
same,clearance,"in vivo; male, KM, iv",46.3 mL/min/kg
same,AUC(0-t),"in vivo; male, KM, po",1860 ng·h/mL
same,Cmax,"in vivo; male, KM, po",2200 ng/mL and 4420 ng/g
same,half-life,"in vivo; male, KM, po",~72 min
same,area under the concentration-time curve (AUC0-t) in brain tissue,in vivo,3565 ng·h/g
same,area under the concentration-time curve (AUC0-t) of brain tissue,in vivo; iv,10694 ng·h/g
